Reference: patent US11390591B2, “2,4,6-trisubstituted s-triazine compound, preparation method therefor, and use thereof” (Aluda Pharmaceuticals, Inc., priority 2016, dated 2022)
Where two headings read alike, the source gives them in different places.

What was measured:
human glioma U87 cells = experiment: Tumor cell vacuolization (methuosis) scoring, U87; format: cell-based; conditions: for Vacuolation Score: 0.01-3.160 μM, microscope
Method: (§1) FIG. 2. Vacuolization of tumor cells. 100 microliter culture medium (RPMI1640, 2 mmol glutamine, 10% fetal bovine serum) containing 10^3 human colon adenocarcinoma cells (HCT15) or human brain glioma cells (U87) and a solvent DMSO control or 100 nM #40 compound (L16) was plated into a 96-well cell culture plate, and cell morphological image was taken under a phase contrast microscope after cultured at 5% CO2 and 37° C. for 96 hours.
Some cells gradually became round and eventually bursted. These changes are consistent with the features of cell death by methuosis (FIG. 2).
In order to compare the ability of different compounds to cause cell vacuolization, 100 μL culture media (RPMI1640, 2 mmol glutamine, 10% fetal bovine serum) comprising 10^3 human glioma U87 cells and final concentrations of 0.01, 0.0316, 0.1, 0.316, 1.0, 3.160 μM respectively of the compounds to be tested were inoculated into a 96-well culture plate. After cultured at 5% CO2 and 37° C. for 96 hours, cell morphology was observed under a high-magnification microscope, and the ability of the compounds to cause cell vacuolization was scored. 5 scores were given when obvious vacuolization occurred at 10 nM, 4 scores at 31.6 nM, 3 scores at 100 nM, 2 scores at 316 nM, 1 score at 1000 nM, and 0 score was given if no vacuolation occurred at any concentration.

vimentin = target: T1, vimentin (Homo sapiens, UniProt P08670); experiment: Fishing of a target protein with a probe (photo-crosslinking, click reaction, MALDI-MS/MS); format: binding; conditions: 0.5 μM probe, U87 cells, 3 hours, UV crosslinking
T1 construct: #79 compound used as a probe is bonded in situ to a target protein within a cell; endogenous in cells; host or cells: U87 human glioma cells
Method: FIG. 4 summarizes isolation and identification of a target protein corresponding to a compound causing cell vacuolization. The related steps are described briefly as follows.
An amount of human glioma cells U87 were plated in an 150 cm^2 Petri dish and cultured for 48 hours to reach 75-90% confluence. The culture medium was replaced with a prewarmed medium containing either 0.5 μM probe (#79 compound) or an equivalent volume of DMSO control. The cells continued in culture for 3 hours.
The cells were washed twice with a prechilled phosphate buffer saline (PBS). The cell-culture dish was placed on ice, and the cells were irradiated with ultraviolet light (an ultraviolet lamp having a power of 100 W, wavelength 350 nm, or 315-385 nm) through the top of the dish for 1 hour. Alternatively, a minimal amount of prechilled PBS (10 ml/150 cm^2) was added to the cell-culture dish which was then placed on an ultraviolet irradiator. The bottom of the cell-culture dish received irradiation for 30 minutes (wavelength 315-385 nm, time being adjusted in light of the ultraviolet power).
The cells were dissociated with trypsin, precipitated by centrifugation, and washed twice with PBS. […] The protein concentration of the cell lysate was measured using the Bradford method. […]

[1] = tested on: cell lines of human brain glioma (U87); experiment: In vitro antineoplastic activity, MTT experiment, U87; format: cell-based
Method: (§2) MTT, RPM1640 culture medium, fetal bovine serum, 96-well plate, CO2 thermostatic incubator, American BIO-RAD680 microplate reader, cell lines of human non-small cell lung cancer (H522), and cell lines of human brain glioma (U87) were all obtained commercially.
(§3) (1) Cell inoculation: A single cell suspension was prepared with culture media supplemented with 10% fetal bovine serum, plated into a 96-well plate with 5000 cells per well, each well having a volume of 100 μL, and cultured overnight.
(§4) (2) Preparation of compound solutions: a DMSO stock solution of a compound was diluted on a sterile bench with a culture medium into 5 concentrations to be tested, wherein a double dilution was employed between two adjacent concentrations.
(§5) (3) The compound solutions of various concentrations were added into the 96-well plate cultured overnight, with 100 μL added per well, triplicated wells for each concentration. Since the peripheral wells can have edge effect and are susceptible to contamination, no cells or compounds were added thereto; instead, 100 μL culture solution was added as a blank. Additionally, 100% wells were set to contain the cells and 100 μL culture media without any compound. The plates were incubated in a thermostatic incubator at 37° C. for 48 hours.
(§6) (4) Staining: 10 μL MTT solution (5 mg/mL, prepared with PBS) was added into the 96-well plate for staining. After incubation for 4 hours, centrifugation was performed at 2500 rpm for 10 minutes. Then, a multiple pipette was used to suck the culture solution out of the wells carefully without sucking out the cells while the pipette tip faced downward. 150 μL DMSO was added and shaken on a shaker for 5-10 minutes. Crystals were allowed to dissolve fully, and an OD value for each well was measured using the microplate reader at 570 nm. The inhibition rate was calculated as follows: Inhibition rate (%)=(average OD value of 100% wells−average OD value of compound wells)/(average OD value of 100% wells−average OD value of blank wells)×100%

[2] = tested on: cell lines of human non-small cell lung cancer (H522); experiment: In vitro antineoplastic activity, MTT experiment, H522; format: cell-based; conditions: H522 cells, 48 hours, highest concentration tested 31.6 μM (>30: inhibition rate <50%)
Method: as §2, §3, §4, §5, §6

[3] = tested on: human colon adenocarcinoma cells (HCT15); experiment: Tumor cell vacuolization, HCT15; format: cell-based; conditions: 100 nM, 96 hours, phase contrast microscope
Method: as §1

T1 sequence (P08670 whole entry): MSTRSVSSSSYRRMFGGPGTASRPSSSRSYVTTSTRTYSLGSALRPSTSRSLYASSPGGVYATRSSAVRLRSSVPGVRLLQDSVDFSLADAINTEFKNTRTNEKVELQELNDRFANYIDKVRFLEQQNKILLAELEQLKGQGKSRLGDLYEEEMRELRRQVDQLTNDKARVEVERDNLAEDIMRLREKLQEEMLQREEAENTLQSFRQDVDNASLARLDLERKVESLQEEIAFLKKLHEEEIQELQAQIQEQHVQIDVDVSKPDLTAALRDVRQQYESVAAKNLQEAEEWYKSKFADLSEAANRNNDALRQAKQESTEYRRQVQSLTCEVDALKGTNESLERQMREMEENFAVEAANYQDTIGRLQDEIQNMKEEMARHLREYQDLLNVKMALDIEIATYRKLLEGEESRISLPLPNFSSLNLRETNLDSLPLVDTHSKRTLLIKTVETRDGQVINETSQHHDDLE

Compound | Vacuolation Score (human glioma U87 cells; U87 cells, 96 hours) | ability to cause cell vacuolization (in words) (human glioma U87 cells; U87 cells, among the compounds tested) | target protein of the compound (vimentin) | IC50 ([1]; U87 cells, MTT, 48 hours, highest concentration tested 31.6 μM, read-out: IC50(μM) U87) [µM] | IC50 ([1]; ability to inhibit cell proliferation, U87 (FIG. 3), unit inferred, read-out: IC50) [µM] | vacuolization of U87 cells (human glioma U87 cells; 100 nM, 96 hours, phase contrast microscope) | IC50 [2] [µM] | vacuolization of HCT15 cells [3]
C#CCCC1(CCNC(=O)c2ccc(NC(=O)Nc3ccc(Nc4nc(/C=C/c5ccccc5)nc(N5CCOCC5)n4)cc3)cc2)N=N1 [compound 79, (E)-N-(2-(3-(1-butyn-4-yl)-3H-diaziridin-3-yl)ethyl)-4-(3-(4-((4-(morpholin-1-yl)-6-styrenyl-1,3,5-triazin-2-yl)amino)phenyl)urea)benzamide] | 4.5 | same cell phenotype | vimentin | – | – | – | – | –
O=C(Nc1ccc(Cl)cc1)Nc1ccc(Nc2nc(/C=C/c3cccc([N+](=O)[O-])c3)nc(N3CCOCC3)n2)cc1 [L16, (E)-1-(4-chlorophenyl)-3-(4-(4-(morpholin-1-yl)-6-(3-nitrostyrenyl)-1,3,5-triazinyl-2-amino)phenyl)urea] | 4 (4 scores at 31.6 nM) | – | – | 1.71 ± 0.06 | 1.71 | significant vaculization | 0.78 ± 0.04 | significant vaculization
